{"source": "patent US20200030414A1", "about": "“THERAPEUTIC AGENT FOR SHORT STATURE” (Daiichi Sankyo Company, Limited, priority 2017, published 2020)", "key": {"[1]": {"experiment": "Body length after 7-day repeated or continuous subcutaneous administration (Example 2)", "assay_type": "in vivo, rat", "conditions": "for Body length (from mouth to end of tail): male SD rat", "method": "A dosing solution of the CNP derivative (A) or (B) was repeatedly subcutaneously administered at doses of 0.005, 0.015, 0.05, 0.15 and 0.5 mg/kg/day once a day for 7 days to 7-week-old male Crl:CD (SD) rats, or charged in an osmotic pump (MINI-OSMOTIC PUMP Model 2002, manufactured by DURECT Corp., flow rate: 0.5 μL/hr, for 14-day use), implanted in the backs of rats, and continuously subcutaneously administered at these doses for 7 days. Their body lengths (from the mouth to the end of the tail) were measured before the start of administration and 8 days after the start of administration."}, "NPR-B": {"test_system": "NPR-B", "sequence (P20594 23-1047, species assumed)": "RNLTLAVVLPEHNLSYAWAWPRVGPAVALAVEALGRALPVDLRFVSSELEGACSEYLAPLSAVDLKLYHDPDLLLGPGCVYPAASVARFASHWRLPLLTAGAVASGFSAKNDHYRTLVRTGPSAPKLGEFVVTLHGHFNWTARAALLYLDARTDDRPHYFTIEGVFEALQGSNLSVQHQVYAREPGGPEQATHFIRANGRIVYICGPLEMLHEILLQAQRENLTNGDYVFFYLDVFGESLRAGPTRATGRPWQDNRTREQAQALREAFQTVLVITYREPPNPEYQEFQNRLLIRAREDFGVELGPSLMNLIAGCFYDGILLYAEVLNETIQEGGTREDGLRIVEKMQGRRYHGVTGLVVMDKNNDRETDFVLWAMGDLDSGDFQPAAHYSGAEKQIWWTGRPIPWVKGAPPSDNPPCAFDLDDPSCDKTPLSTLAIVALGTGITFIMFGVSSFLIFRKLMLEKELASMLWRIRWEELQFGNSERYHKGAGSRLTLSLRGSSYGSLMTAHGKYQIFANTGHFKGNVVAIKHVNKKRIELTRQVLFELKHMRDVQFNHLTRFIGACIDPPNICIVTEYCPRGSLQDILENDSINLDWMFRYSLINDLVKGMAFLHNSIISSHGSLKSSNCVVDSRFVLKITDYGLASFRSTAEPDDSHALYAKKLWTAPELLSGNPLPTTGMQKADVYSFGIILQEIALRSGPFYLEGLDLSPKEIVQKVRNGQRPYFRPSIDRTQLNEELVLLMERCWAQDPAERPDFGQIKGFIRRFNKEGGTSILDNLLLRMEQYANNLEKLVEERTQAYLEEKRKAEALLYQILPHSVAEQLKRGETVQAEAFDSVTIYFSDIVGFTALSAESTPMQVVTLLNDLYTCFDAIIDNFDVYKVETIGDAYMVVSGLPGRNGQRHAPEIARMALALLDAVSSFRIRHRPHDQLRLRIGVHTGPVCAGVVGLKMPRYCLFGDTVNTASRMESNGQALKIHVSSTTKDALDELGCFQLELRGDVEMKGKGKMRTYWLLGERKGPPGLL", "conditions": "Furuya et al. 1992; cited from earlier work"}, "[2]": {"experiment": "Concentration in plasma during 24-hour continuous intravenous administration (Example 4)", "assay_type": "in vivo, cynomolgus monkey", "conditions": "0.1 mg/kg/day continuous i.v. 24 h, immediately before completion of administration", "method": "(§1) The CNP derivative (A) was continuously intravenously administered at doses of 0.015 to 0.1 mg/kg/day at a constant rate to telemetry transmitter-implanted cynomolgus monkeys (two males and two females), and studied for its influence on blood pressure (systolic, diastolic, and average blood pressures), heart rate, and an electrocardiographic parameter.\n[Table 3: Systolic blood pressure fluctuation range (maximum value during administration period) when CNP derivative (A) was continuously intravenously administered at constant rate for 24 hours to cynomolgus monkey, and concentration of CNP derivative (A) in plasma immediately before completion of administration"}, "[3]": {"experiment": "Estimated concentration in plasma during repeated subcutaneous administration with two vehicles (Example 3)", "assay_type": "in vivo, rat"}, "[4]": {"experiment": "Blood pressure lowering effect, 24-hour continuous intravenous administration, telemetry (Example 4)", "assay_type": "in vivo, cynomolgus monkey", "parameters": "Systolic blood pressure fluctuation range (maximum value %): unit not given here", "conditions": "for Systolic blood pressure fluctuation range (maximum value %): maximum value during administration period", "method": "as §1"}, "[5]": {"conditions": "normal mice, continuous intravenous administration, increased bone length; cited from earlier work"}}, "note": "Where a SMILES comes first, the peptide text is derived from it. Bridges are numbered along the chain shown (N, C = ends). Where no end group is shown, it is not given here."}
{"compound": "CNP derivative (B): derivative consisting of the amino acid sequence Pro-Gly-CNP-37 (SEQ ID NO: 4), from WO2009/067639, under clinical development for achondroplasia (PGQEHPNARKYKGANKKGLSKGCFGLKLDRIGSMSGLGC; CNP derivative D, which disclosed in Am. J. Hum. Gent.(2012), 91(6), 1108-1114)", "values": [{"measurement": "bone growth effect per dose, continuous vs repeated subcutaneous administration", "setting": "[1]; 7 days", "value": "stronger under continuous subcutaneous administration conditions"}, {"measurement": "Body length (from mouth to end of tail)", "setting": "[1]; continuous subcutaneous, 0.005 mg/kg/day, 7 days", "value": "215.2 ± 3.5 ^NS mm"}, {"measurement": "Body length (from mouth to end of tail)", "setting": "[1]; continuous subcutaneous, 0.015 mg/kg/day, 7 days", "value": "213.6 ± 4.4 ^NS mm"}, {"measurement": "Body length (from mouth to end of tail)", "setting": "[1]; continuous subcutaneous, 0.05 mg/kg/day, 7 days", "value": "212.2 ± 5.2 ^NS mm"}, {"measurement": "Body length (from mouth to end of tail)", "setting": "[1]; continuous subcutaneous, 0.15 mg/kg/day, 7 days", "value": "220.2 ± 4.3", "unit": "mm"}, {"measurement": "Body length (from mouth to end of tail)", "setting": "[1]; continuous subcutaneous, 0.5 mg/kg/day, 7 days", "value": "222.8 ± 3.5", "unit": "mm"}, {"measurement": "increase in body length (from the mouth to the end of the tail)", "setting": "[1]; continuous subcutaneous, 7-day, doses of 0.15 mg/kg/day or higher", "value": "significant increase"}, {"measurement": "effect on body length", "setting": "[1]; repeated subcutaneous administration conditions, 7 days", "value": "no significant effect"}, {"measurement": "Body length (from mouth to end of tail)", "setting": "[1]; repeated subcutaneous, 0.005 mg/kg/day, 7 days", "value": "211.8 ± 2.9 ^NS mm"}, {"measurement": "Body length (from mouth to end of tail)", "setting": "[1]; repeated subcutaneous, 0.015 mg/kg/day, 7 days", "value": "213.2 ± 4.4 ^NS mm"}, {"measurement": "Body length (from mouth to end of tail)", "setting": "[1]; repeated subcutaneous, 0.05 mg/kg/day, 7 days", "value": "214.4 ± 4.7 ^NS mm"}, {"measurement": "Body length (from mouth to end of tail)", "setting": "[1]; repeated subcutaneous, 0.15 mg/kg/day, 7 days", "value": "211.3 ± 4.5 ^NS mm"}, {"measurement": "Body length (from mouth to end of tail)", "setting": "[1]; repeated subcutaneous, 0.5 mg/kg/day, 7 days", "value": "215.2 ± 3.3 ^NS mm"}]}
{"compound": "CNP6-22: peptide consisting of the ring structure, amino acid positions 6 to 22 of SEQ ID NO: 1 (CFGLKLDRIGSMSGLGC; disulfide 1-17 (inferred); listed as Homo sapiens)", "values": [{"measurement": "NPR-B agonistic activity compared with hCNP-22", "setting": "NPR-B", "value": "almost equivalent to that of hCNP-22"}]}
{"compound": "CC[C@H](C)[C@@H]1NC(=O)[C@H](CCCNC(=N)N)NC(=O)[C@H](CC(=O)O)NC(=O)[C@H](CC(C)C)NC(=O)[C@H](CCCCN)NC(=O)[C@H](CC(C)C)NC(=O)CNC(=O)[C@H](Cc2ccccc2)NC(=O)[C@@H](NC(=O)CNC(=O)[C@H](CCCCN)NC(=O)[C@H](CO)NC(=O)[C@H](CC(C)C)NC(=O)CN)CSSC[C@@H](C(=O)N[C@H](C(=O)N[C@@H](CCC(N)=O)C(=O)N[C@@H](CCC(N)=O)C(=O)N[C@@H](CCCNC(=N)N)C(=O)N[C@@H](CCCCN)C(=O)N[C@@H](CC(=O)O)C(=O)N[C@@H](CO)C(=O)N[C@@H](CCCCN)C(=O)N[C@@H](CCCCN)C(=O)N2CCC[C@H]2C(=O)N2CCC[C@H]2C(=O)N[C@@H](C)C(=O)N[C@@H](CCCCN)C(=O)N[C@@H](CC(C)C)C(=O)N[C@@H](CCC(N)=O)C(=O)N2CCC[C@H]2C(=O)N[C@@H](CCCNC(=N)N)C(=O)O)C(C)C)NC(=O)CNC(=O)[C@H](CC(C)C)NC(=O)CNC(=O)[C@H](CO)NC(=O)[C@H](CCSC)NC(=O)[C@H](CO)NC(=O)CNC1=O", "note": "[CNP derivative (A)] (H-GLSKGCFGLKLDRIGSMSGLGCVQQRKDSKKPPAKLQPR-OH; disulfide 6-22; N-terminus and C-terminus assumed)", "values": [{"measurement": "Concentration in plasma", "setting": "[2]", "value": 9.8, "unit": "ng/mL"}, {"measurement": "estimated concentration in plasma", "setting": "[3]; vehicle 1, 0.5 mg/kg s.c., 9 hours after administration", "value": "≤ 0.1", "unit": "ng/mL"}, {"measurement": "estimated concentration in plasma", "setting": "[3]; vehicle 1, 0.5 mg/kg s.c., immediately after administration", "value": "≥ 200", "unit": "ng/mL"}, {"measurement": "peak concentration in plasma (estimated)", "setting": "[3]; vehicle 2, 0.25 mg/kg s.c.", "value": "about 40 ng/mL"}, {"measurement": "estimated concentration in plasma", "setting": "[3]; vehicle 2, 0.25 mg/kg s.c., 12 hours after administration", "value": "≥ 0.1", "unit": "ng/mL"}, {"measurement": "Systolic blood pressure fluctuation range (maximum value %)", "setting": "[4]; 0.015 mg/kg/day continuous i.v. 24 h", "value": "−6.8"}, {"measurement": "systolic blood pressure decrease", "setting": "[4]; 0.05 mg/kg continuous i.v.", "value": "−11.0", "unit": "mmHg"}, {"measurement": "Systolic blood pressure fluctuation range (maximum value %)", "setting": "[4]; 0.05 mg/kg/day continuous i.v. 24 h", "value": "−11.0"}, {"measurement": "systolic blood pressure decrease", "setting": "[4]; 0.1 mg/kg continuous i.v.", "value": "−20.5", "unit": "mmHg"}, {"measurement": "Systolic blood pressure fluctuation range (maximum value %)", "setting": "[4]; 0.1 mg/kg/day continuous i.v. 24 h", "value": "−20.5"}, {"measurement": "reflex tachycardia", "setting": "[4]; concentration in plasma up to 9.8 ng/mL at its maximum", "value": "no symptom indicating reflex tachycardia was observed"}, {"measurement": "concentration in plasma up to which reflex tachycardia is less likely to occur", "setting": "[4]; elevated by continuous change", "value": "about 10 ng/mL"}, {"measurement": "blood pressure lowering effect (systolic and average blood pressures), average of differences from pre-administration values", "setting": "[4]; observed from 0.05 mg/kg", "value": "exceeding 10 mmHg"}, {"measurement": "concentration in plasma at which the risk of developing decreased blood pressure is drastically reduced", "setting": "[4]; waking cynomolgus monkeys", "value": "≤ 4", "unit": "ng/mL"}]}
{"compound": "CNP-22", "values": [{"measurement": "effective concentration in plasma", "setting": "[5]", "value": 29.3, "unit": "ng/mL"}]}
